Measurements published in patent publication US4988687A, “Cephalosporin derivatives, and antibacterial agents” (priority 1986, dated 1991).
Like-named read-outs stand apart in the source and are kept apart here.

Key:
Ps. maltophilia GN 12873 = test: agar plate dilution method, MIC against Ps. maltophilia GN 12873; assay type: cell-based, Pseudomonas maltophilia; settings: Stenotrophomonas maltophilia, GN12873; Ps. maltophilia GN 12873 (lactamase-producing strain); 10^6 CFU/ml, 37° C., 16 hours; read-out: Minimum Inhibitory Concentration (MIC)
Experimental: (§1) The in vitro antibacterial activities of the compounds of the present invention against various microorganisms, were measured by the following agar plate dilution method. One platinum loopfull of each test microorganism incubated overnight in Mueller Hinton broth, was inoculated to Mueller Hinton agar (inoculum size: 10^6 CFU/ml) Such culture media containing various antibiotics in various concentrations were prepared After incubation at 37° C. for 16 hours, the minimum inhibitory concentrations (MIC: μg/ml) were measured. As comparative compounds, cefotaxime, oeftazidime and the compounds disclosed in Example 2 of Japanese Unexamined Patent Publication No. 215690/1985 e.g. sodium 7-[2-(2-aminothiazol-4-yl)-2-ethoxyiminoacetamido]-3-(1-carboxylatemethylpyridinio-4-yl)thiomethyl-3-cephem-4-carboxylate (hereinafter referred to simply as "Reference Example A") were employed.

S. aureus JS1 = test: agar plate dilution method, MIC against S. aureus JS1; assay type: cell-based; settings: Staphylococcus aureus; S. aureus JS1 (methicilline resistant; lactamase-producing strain); 10^6 CFU/ml, 37° C., 16 hours; read-out: Minimum Inhibitory Concentration (MIC)
Experimental: as §1

Ps. aeruginosa AK 109 = test: agar plate dilution method, MIC against Ps. aeruginosa AK 109; assay type: cell-based; settings: Pseudomonas aeruginosa, AK109, 16 h, read-out: Minimum Inhibitory Concentration (MIC)
Experimental: as §1

Ps. aeruginosa AKR17 = test: agar plate dilution method, MIC against Ps. aeruginosa AKR17; assay type: cell-based; settings: Pseudomonas aeruginosa; Ps. aeruginosa AKR17; 10^6 CFU/ml, 37° C., 16 hours; read-out: Minimum Inhibitory Concentration (MIC)
Experimental: as §1

S. aureus BB5703 = test: agar plate dilution method, MIC against S. aureus BB5703; assay type: cell-based; settings: Staphylococcus aureus, read-out: Minimum Inhibitory Concentration (MIC)
Experimental: as §1

E. coli CSH2 (RK1) = test: agar plate dilution method, MIC against E. coli CSH2 (RK1); assay type: cell-based; settings: Escherichia coli, 16 h, read-out: Minimum Inhibitory Concentration (MIC)
Experimental: as §1

P. vulgaris No. 33 = test: agar plate dilution method, MIC against P. vulgaris No. 33; assay type: cell-based; settings: Proteus vulgaris; P. vulgaris No. 33 (lactamase-producing strain); 10^6 CFU/ml, 37° C., 16 hours; read-out: Minimum Inhibitory Concentration (MIC)
Experimental: as §1

S. aureus 209P NIHJ-JC1 = test: agar plate dilution method, MIC against S. aureus 209P NIHJ-JC1; assay type: cell-based; settings: Staphylococcus aureus, read-out: Minimum Inhibitory Concentration (MIC)
Experimental: as §1

A. calcoaceticus No. 4 = test: agar plate dilution method, MIC against A. calcoaceticus No. 4; assay type: cell-based; settings: Acinetobacter calcoaceticus; A. calcoaceticus No. 4; 10^6 CFU/ml, 37° C., 16 hours; read-out: Minimum Inhibitory Concentration (MIC)
Experimental: as §1

C. freundii GN346 = test: agar plate dilution method, MIC against C. freundii GN346; assay type: cell-based; settings: Citrobacter freundii; C. freundii GN346 (lactamase-producing strain); 10^6 CFU/ml, 37° C., 16 hours; read-out: Minimum Inhibitory Concentration (MIC)
Experimental: as §1

C. freundii GN346/16 = test: agar plate dilution method, MIC against C. freundii GN346/16; assay type: cell-based; settings: Citrobacter freundii, read-out: Minimum Inhibitory Concentration (MIC)
Experimental: as §1

K. oxytoca GN10650 = test: agar plate dilution method, MIC against K. oxytoca GN10650; assay type: cell-based; settings: Klebsiella oxytoca; K. oxytoca GN10650 (lactamase-producing strain); 10^6 CFU/ml, 37° C., 16 hours; read-out: Minimum Inhibitory Concentration (MIC)
Experimental: as §1

E. coli NIHJ JC2 = test: agar plate dilution method, MIC against E. coli NIHJ JC2; assay type: cell-based; settings: Escherichia coli, read-out: Minimum Inhibitory Concentration (MIC)
Experimental: as §1

Ps. aeruginosa IFO3445 = test: agar plate dilution method, MIC against Ps. aeruginosa IFO3445; assay type: cell-based; settings: Pseudomonas aeruginosa, IFO3445, 16 h, read-out: Minimum Inhibitory Concentration (MIC)
Experimental: as §1

S. epidermidis IAM12012 = test: agar plate dilution method, MIC against S. epidermidis IAM12012; assay type: cell-based; settings: Staphylococcus epidermidis, read-out: Minimum Inhibitory Concentration (MIC)
Experimental: as §1

M. luteus ATCC9341 = test: agar plate dilution method, MIC against M. luteus ATCC9341; assay type: cell-based; settings: Micrococcus luteus, read-out: Minimum Inhibitory Concentration (MIC)
Experimental: as §1

P. vulgaris HX-19 = test: agar plate dilution method, MIC against P. vulgaris HX-19; assay type: cell-based; settings: Proteus vulgaris, read-out: Minimum Inhibitory Concentration (MIC)
Experimental: as §1

E. coli CSH(RE45) = test: agar plate dilution method, MIC against E. coli CSH(RE45); assay type: cell-based; settings: Escherichia coli, 16 h, read-out: Minimum Inhibitory Concentration (MIC)
Experimental: as §1

K. pneumoniae No. 42 = test: agar plate dilution method, MIC against K. pneumoniae No. 42; assay type: cell-based; settings: Klebsiella pneumoniae; K. pneumoniae No. 42 (lactamase-producing strain); 10^6 CFU/ml, 37° C., 16 hours; read-out: Minimum Inhibitory Concentration (MIC)
Experimental: as §1

Ps. cepacia 23 = test: agar plate dilution method, MIC against Ps. cepacia 23; assay type: cell-based, Pseudomonas cepacia; settings: Burkholderia cepacia, 23, 16 h, read-out: Minimum Inhibitory Concentration (MIC)
Experimental: as §1

K. pneumoniae PCI-602 = test: agar plate dilution method, MIC against K. pneumoniae PCI-602; assay type: cell-based; settings: Klebsiella pneumoniae, PCI602, 16 h, read-out: Minimum Inhibitory Concentration (MIC)
Experimental: as §1

E. cloacae 963 = test: agar plate dilution method, MIC against E. cloacae 963; assay type: cell-based; settings: read-out: Minimum Inhibitory Concentration (MIC)
Experimental: as §1

S. marcescens IAM 1184 = test: agar plate dilution method, MIC against S. marcescens IAM 1184; assay type: cell-based; settings: Serratia marcescens, IAM1184; S. marcescens IAM 1184; 10^6 CFU/ml, 37° C., 16 hours; read-out: Minimum Inhibitory Concentration (MIC)
Experimental: as §1

M. morganii GN5407 = test: agar plate dilution method, MIC against M. morganii GN5407; assay type: cell-based; settings: Morganella morganii; M. morganii GN5407 (lactamase-producing strain); 10^6 CFU/ml, 37° C., 16 hours; read-out: Minimum Inhibitory Concentration (MIC)
Experimental: as §1

E. coli GN5482 = test: agar plate dilution method, MIC against E. coli GN5482; assay type: cell-based; settings: Escherichia coli; E. coli GN5482 (lactamase-producing strain); 10^6 CFU/ml, 37° C., 16 hours; read-out: Minimum Inhibitory Concentration (MIC)
Experimental: as §1

E. cloacae Nek 39 = test: agar plate dilution method, MIC against E. cloacae Nek 39; assay type: cell-based; settings: Enterobacter cloacae, NEK39; E. cloacae Nek 39 (lactamase-producing strain); 10^6 CFU/ml, 37° C., 16 hours; read-out: Minimum Inhibitory Concentration (MIC)
Experimental: as §1

S. marcescens No. 16-2 = test: agar plate dilution method, MIC against S. marcescens No. 16-2; assay type: cell-based; settings: Serratia marcescens, NO.162, 16 h, read-out: Minimum Inhibitory Concentration (MIC)
Experimental: as §1

SMILES	MIC (Ps. maltophilia GN 12873) [µg/mL]	MIC (S. aureus JS1) [µg/mL]	MIC (Ps. aeruginosa AK 109) [µg/mL]	MIC (Ps. aeruginosa AKR17) [µg/mL]	MIC (E. coli CSH2 (RK1)) [µg/mL]	MIC (P. vulgaris No. 33) [µg/mL]	MIC (A. calcoaceticus No. 4) [µg/mL]	MIC (C. freundii GN346) [µg/mL]	MIC (K. oxytoca GN10650) [µg/mL]	MIC (Ps. aeruginosa IFO3445) [µg/mL]	MIC (E. coli CSH(RE45)) [µg/mL]	MIC (K. pneumoniae No. 42) [µg/mL]	MIC (Ps. cepacia 23) [µg/mL]	MIC (K. pneumoniae PCI-602) [µg/mL]	MIC (S. marcescens IAM 1184) [µg/mL]	MIC (M. morganii GN5407) [µg/mL]	MIC (E. coli GN5482) [µg/mL]	MIC (E. cloacae Nek 39) [µg/mL]	MIC (S. marcescens No. 16-2) [µg/mL]	also measured
Nc1nc(/C(=N/OC(C(=O)O)c2ccccc2)C(=O)NC2C(=O)N3C(C(=O)[O-])=C(CSc4cc[n+](CC(=O)O)cc4)CSC23)cs1 (stereo not drawn) [Example 3, disodium 7-[2-(2-aminothiazol-4-yl)-2-(α-carboxylatebenzyloxyimino)acetamide]-3-(1-caboxylatemethylpyridinio-4-yl)thiomethyl-3-cephem-4-carboxylate (syn-isomer)]	> 100	50	6.25	> 100	0.78	0.1	50	100	0.78	3.12	0.78	1.56	3.12	< 0.006	0.39	0.78	0.78	6.25	6.25	MIC (S. aureus BB5703; S. aureus BB5703, 10^6 CFU/ml, 37° C., 16 hours): 25 µg/mL; MIC (S. aureus 209P NIHJ-JC1; 16 h): 12.5 µg/mL; MIC (C. freundii GN346/16; GN346, 16 h): 1.56 µg/mL; MIC (E. coli NIHJ JC2; NIHJJC2, 16 h): 1.56 µg/mL; MIC (S. epidermidis IAM12012; IAM12012, 16 h): 6.25 µg/mL; MIC (M. luteus ATCC9341; ATCC9341, 16 h): 3.12 µg/mL; MIC (P. vulgaris HX-19; HX19, P. vulgaris HX-19, 10^6 CFU/ml, 37° C., 16 hours): 0.0125 µg/mL; MIC (E. cloacae 963; Enterobacter cloacae, 963, 16 h): 1.56 µg/mL
CCON=C(C(=O)NC1C(=O)N2C(C(=O)[O-])=C(CSc3cc[n+](CC(=O)O)cc3)CSC12)c1csc(N)n1 (stereo not drawn) [Reference Example A, sodium 7-[2-(2-aminothiazol-4-yl)-2-ethoxyiminoacetamido]-3-(1-carboxylatemethylpyridinio-4-yl)thiomethyl-3-cephem-4-carboxylate, reference compound]	> 100	100	12.5	> 100	0.025	0.05	100	25	3.12	6.25	0.05	0.05	6.25	< 0.006	0.05	0.05	0.2	1.56	6.25	MIC (S. aureus BB5703; BB5703, 16 h): 3.12 µg/mL; MIC (S. aureus 209P NIHJ-JC1; S. aureus 209P NIHJ-JC1, 10^6 CFU/ml, Mueller Hinton agar, 37° C., 16 hours): 0.39 µg/mL; MIC (C. freundii GN346/16; C. freundii GN346/16, 10^6 CFU/ml, 37° C., 16 hours): 0.1 µg/mL; MIC (E. coli NIHJ JC2; NIHJJC2, E. coli NIHJ JC2, 10^6 CFU/ml, 37° C., 16 hours): 0.05 µg/mL; MIC (S. epidermidis IAM12012; S. epidermidis IAM12012, 10^6 CFU/ml, 37° C., 16 hours): 0.05 µg/mL; MIC (M. luteus ATCC9341; M. luteus ATCC9341, 10^6 CFU/ml, 37° C., 16 hours): 0.1 µg/mL; MIC (P. vulgaris HX-19; HX19, 16 h): < 0.006 µg/mL; MIC (E. cloacae 963; Enterobacter cloacae, E. cloacae 963, 10^6 CFU/ml, 37° C., 16 hours): 0.1 µg/mL
